In brackets after ≈: the same amount, converted by molar mass.
Columns and labels:
ethanol peptic ulcer = test: Inhibitory action against ethanol peptic ulcer; assay type: in vivo; conditions: Rattus norvegicus; SD male rats, 32 mg/kg oral, 1 hour before ethanol 0.5 ml/100 g; read-out: Inhibitory action against ethanol peptic ulcer, Percent inhibition of p.u. formation
Protocol: (2) Inhibitory action against ethanol peptic ulcer
SD male rats (weighing 200-300 g) were fasted for 24 hours before oral administration of a thiourea derivative of the invention at a dose of 32 mg/kg bodyweight. One hour later, ethanol was orally given in a volume of 0.5 ml/100 g bodyweight. One hour after treating with ethanol, the rat was sacrificed with ether, and the stomach was excised and treated with formalin. Area (mm^2) of the lesions developed in the glandular stomach area was then measured. Results were expressed in sum of the lesions per animal which was referred to as peptic ulcer index.
(§1) It was confirmed that the thiourea derivatives of the invention not shown in the table also have a similar antiulcer activity.
Percent inhibition of the peptic ulcer formation (%) as shown in the table was calculated according to the same equation as mentioned above.

Helicobacter pylori = test: Antimicrobial activity against Helicobacter pylori (MIC); assay type: cell-based, Helicobacter pylori strain NCTC 11916; conditions: NCTC11916, strain NCTC 11916, twofold dilution, 37° C., 3-5 days, O2 about 5%
Protocol: (3) Antimicrobial activity against Helicobacter pylori
Antimicrobial activity of the thiourea derivatives according to the invention against Helicobacter pylori (or Campylobacter pylori) was evaluated by employing strain NCTC 11916 as a Helicobacter test organism and determining MIC (minimum inhibitory concentration) for the strain with the thiourea derivative.
The Helicobacter pylori was pre-incubated in a plate medium for 3-5 days. The medium was prepared by dissolving 38 g of a Mueller-Hinton medium (manufactured by Difco) in an appropriate amount of distilled water, sterilizing the solution in an autoclave, adding to the solution 50 ml of a horse hemolysis solution (manufactured by Nippon Seibutu Zairyou Center: Horse defibrinized blood, hemolyzed by a lyophilization treatment) and 2 ml of Skirrow, a Campylobacter selective supplement (manufactured by OXOID) containing vancomycin (5 mg), trimethoprim (2.5 mg) and polymyxin B (1250 IU) per vial (2 ml), and further an appropriate amount of distilled water to a volume of 1L in total and expanding and solidifying the solution on a dish. These antibiotics were contained for inhibition of the growth of microorganism other than Helicobacter pylori. The Helicobacter pylori pre-incubated under slightly aerobic conditions (an O2 concentration of about 5%) at 37° C. for 3-5 days was suspended in a physiological saline solution in a concentration of approximately 10^8 organisms/ml. Approximately 10-20 μl of the suspension was inoculated on a medium for MIC measurement in cross streaks. […] The DMSO solution was formed by the twofold dilution method. As in the pre-incubation, the Helicobacter pylori was cultured under slightly aerobic conditions at 37° C. for 3-5 days. After completion of the culture, growth of the microoranisms on the streaks was visually determined. The minimum concentration of the thiourea derivative in which no growth was observed was taken as MIC.
It was confirmed that the thiourea derivatives of the invention not shown in the table also have a similar antimicrobial activity.

[1] = tested on: peptic ulcer induced by water immersion restraint stress; test: Inhibitory action against the peptic ulcer induced by water immersion restraint stress; assay type: in vivo; conditions: Rattus norvegicus; SD male rats, 32 mg/kg oral, water immersion restraint stress 23° C., 7 hours; read-out: Inhibitory action against stress peptic ulcer, Percent inhibition of p.u. formation
Protocol: (1) Inhibitory action against the peptic ulcer induced by water immersion restraint stress
SD male rats (weighing 200-300 g) were fasted for 24 hours before oral administration of a thiourea derivative of the invention at a dose of 32 mg/kg bodyweight. One hour later, the animal was put in a stress cage and loaded with water immersion restraint stress in a water bath at 23° C. Seven hours after loading with the stress, the rate was sacrificed with ether, and the stomach was excised and treated with formalin. Area (mm^2 ) of the lesions developed in the glandular stomach area was then measured. Results were expressed in sum of the lesions per animal which was referred to as peptic ulcer index.
as §1
Percent inhibition of the peptic ulcer formation (%) as shown in the table was calculated according to the following equation: [formula]

Row | MIC (Helicobacter pylori) | SMILES | inhibition in vivo at 32 mg/kg (ethanol peptic ulcer) | inhibition in vivo at 32 mg/kg [1]
1 | 6.25 µg/mL (≈ 12.5 µM) | COc1ccc(NC(=S)NCCCC(=O)NCCCOc2cccc(CN3CCCCC3)c2)cn1 [Example 25, 1-[3-[N-[3-[3-(piperidinomethyl)phenoxy]propyl]carbamoyl]propyl]-3-[3-(6-methoxypyridyl)]thiourea] | 72.5% | 65.6%
2 | 6.25 µg/mL (≈ 13.2 µM) | O=C(CCCNC(=S)NCc1ccco1)NCCCOc1cccc(CN2CCCCC2)c1 [Example 26, 1-[3-[N-[3-[3-(piperidinomethyl)phenoxy]propyl]carbamoyl]propyl]-3-furfurylthiourea] | 90.3% | 74.4%
3 | 6.25 µg/mL (≈ 12.8 µM) | O=C(CCCNC(=S)NCc1cccs1)NCCCOc1cccc(CN2CCCCC2)c1 [Example 27, 1-[3-[N-[3-[3-(piperidinomethyl)phenoxy]propyl]carbamoyl]propyl]-3-(2-thienylmethyl)thiourea] | 88.2% | 72.5%
4 | 12.5 µg/mL (≈ 25.2 µM) | O=C(CCCCCNC(=S)Nc1ccccc1)NCCCOc1cccc(CN2CCCCC2)c1 [Example 28, 1-[5-[N-[3-[3-(piperidinomethyl)phenoxy]propyl]carbamoyl]pentyl]-3-phenylthiourea] | 75.5% | 73.2%

— patent US5190961A, “Thiourea derivatives and antimicrobial agent and antulcer agent containing the same” (Terumo Kabushiki Kaisha, priority 1990, dated 1993)
